Key:
ICAM-1 [1] = experiment: ICAM-1 expression in bEnd.3 cells (flow cytometry of cell-surface protein, Northern blot of mRNA); type: cell-based, mouse; settings: cell culture, without any cationic lipid adjuvant
Text: Cholesterol-oligonucleotide assays for ICAM-1 are done in the bEnd.3 cell line, a brain endothelioma using Opti-MEM, trypsin-EDTA and DMEM with high glucose (all from Gibco-BRL, Grand Island, N.Y.), Dulbecco's PBS (Irvine Scientific, Irvine, Calif.), sterile, 12 well tissue culture plates and Facsflow solution (from Becton Dickinson, Mansfield, Mass.), ultrapure formaldehyde (Polysciences, Warrington, Pa.), recombinant human TNF-α (R&D Systems, Minneapolis, Minn., mouse interferon-γ (Genzyme, Cambridge, Mass.), and Fraction V, BSA (Sigma, St. Louis, Mo.). The mouse ICAM-1-PE, VCAM-1-FITC, hamster IgG-FITC and rat IgG2α-PE antibodies were purchased from Pharmingen (San Diego, Calif.). Zeta-Probe nylon blotting membrane was purchased from Bio-Rad (Richmond, Calif.). QuickHyb solution was purchased from Stratagene (La Jolla, Calif.). A cDNA labeling kit, Prime-a-Gene, was purchased from ProMega (Madison, Wis.). NAP-5 columns were purchased from Pharmacia (Uppsala, Sweden). […]
After oligonucleotide treatment, cells are detached from the plates with a short treatment of trypsin-EDTA (1-2 min.). […] Cells are analyzed on a Becton Dickinson FACScan. Results are expressed as percentage of control expression, which is calculated as follows: [((CAM expression for oligonucleotide-treated cytokine induced cells)−(basal CAM expression))/((cytokine-induced CAM expression)−(basal CAM expression))]×100. […]

VCAM-1 = VCAM-1 expression in cell culture (target specificity control); type: cell-based, mouse; settings: isotype protein VCAM-1
Text: Cholesterol-oligonucleotide assays for ICAM-1 are done in the bEnd.3 cell line, a brain endothelioma using Opti-MEM, trypsin-EDTA and DMEM with high glucose (all from Gibco-BRL, Grand Island, N.Y.), Dulbecco's PBS (Irvine Scientific, Irvine, Calif.), sterile, 12 well tissue culture plates and Facsflow solution (from Becton Dickinson, Mansfield, Mass.), ultrapure formaldehyde (Polysciences, Warrington, Pa.), recombinant human TNF-α (R&D Systems, Minneapolis, Minn., mouse interferon-γ (Genzyme, Cambridge, Mass.), and Fraction V, BSA (Sigma, St. Louis, Mo.). The mouse ICAM-1-PE, VCAM-1-FITC, hamster IgG-FITC and rat IgG2α-PE antibodies were purchased from Pharmingen (San Diego, Calif.). Zeta-Probe nylon blotting membrane was purchased from Bio-Rad (Richmond, Calif.). QuickHyb solution was purchased from Stratagene (La Jolla, Calif.). A cDNA labeling kit, Prime-a-Gene, was purchased from ProMega (Madison, Wis.). NAP-5 columns were purchased from Pharmacia (Uppsala, Sweden). Cells are grown to approximately 75% confluency in 12 well plates with DMEM containing 4.5 g/L glucose and 10% FBS. […] Cells are analyzed on a Becton Dickinson FACScan. Results are expressed as percentage of control expression, which is calculated as follows: [((CAM expression for oligonucleotide-treated cytokine induced cells)−(basal CAM expression))/((cytokine-induced CAM expression)−(basal CAM expression))]×100. […]

[2] = mouse, in vivo
Experimental: The effect of cholesterol conjugation on the pharmacokinetic properties of the oligonucleotide is determined in mice using ^3H radiolabeled Oligonucleotide VI.

ICAM-1 [3] = experiment: Inhibition of LPS-induced ICAM-1 expression in mouse liver; type: in vivo, C57Bl/10 mice; settings: 10 mg/kg i.v. twice, 24 h and 2 h before LPS; liver RNA 4 h after LPS

Substance: Oligomer VI: TGC* ATC CCC CAG GCC ACC AT (P = S), C* = cholesterol carbamate nucleoside Compound 9; cholesterol conjugate of ISIS 3082
- effect on ICAM-1 expression (ICAM-1 [1]): inhibits ICAM-1 in a dose dependent manner
- inhibition of VCAM-1 expression (VCAM-1): neither molecule show significant inhibition
- amount of oligonucleotide in kidney, skeletal muscle and skin [2]: reduced in kidney, skeletal muscle and skin
- amount of oligonucleotide in liver [2]: more oligonucleotide is found in the liver
- retention in plasma [2]: retained in the plasma for longer periods of time than is ISIS-3082
- reduction of ICAM expression in liver (ICAM-1 [3]): 40-50%

Source: patent publication US6803198B2, “Carbamate-derivatized nucleosides and oligonucleosides” (ISIS Pharmaceuticals, Inc., priority 1996, dated 2004)
